These results are taken from US20160354411A1, “OLIVAMINE-INDUCED IMPROVEMENT IN ENDOTHELIAL CELLS VIABILITY AND FUNCTION” (priority 2015, published 2016).

Data set [1] deals with human microvascular endothelial cells. Description: in vitro model of wound healing, time for 50% wound to heal. It is filed as cell-based. An excerpt:
The time for wounds to heal by 50% under the various treatment conditions was quantified.

The test system of the next data set is proliferative cells. Put plainly: induction or maintenance of a quiescent cell state. It is filed as cell-based. Conditions: evidence obtained to-date. The procedure: More specifically, when present at a concentration above a threshold level, hydroxytyrosol can induce proliferative cells into a quiescent state and help maintain cells in a pre-existing quiescent state. Based upon evidence obtained to-date, the threshold concentration is about 10 μM hydroxytyrosol.

Data set [2] concerns human umbilical vein endothelial cells (HUVEC). Put plainly: HUVEC cell migration / wound gap closure with or without 30 mM glucose pre-treatment. The class given is cell-based. Conditions: for Time for 50% wound to heal: 24 hours incubation before wounding; for Healing Improvement (%): compared to untreated cells. The procedure: Additional wound studies were conducted using umbilical cord stem cells in addition to the use of hydroxytyrosol compositions and commercially-available OLIVAMINE® (compositions of hydroxytyrosol and oleuropein) compositions (20 μM hydroxytyrosol, 80 μM oleuropein, 2 mM N-acetylcysteine, 50 μM L-proline, 2 mM glycine and 100 μM taurine). These were evaluated with human umbilical vein endothelial cells (HUVEC) to assess impact on cell migration and wound healing.
HUVEC cells. Human umbilical vein endothelial cells are derived from the endothelium of veins from the umbilical cord (HUVEC primary cells purchased from Lonza). HUVECs have been widely used as a model system for the study of the regulation of endothelial cell function and the role of the endothelium in response of the blood vessel wall to stretch, shear forces and the development of atherosclerotic plaques and angiogenesis. For the following study, HUVECs are a primary endothelial cell line as a model system for the function and pathology of endothelial cells. We investigated improvement in cell proliferation and migration following treatment with OLIVAMINE® (compositions of hydroxytyrosol and oleuropein) composition.
In this study, HUVEC cells were pre-treated with or without 30 mM glucose for 3 days (72 hours). The cells were then equilibrated for a day (24 hours), and incubated with 50 μM hydroxytyrosol or OLIVAMINE® (compositions of hydroxytyrosol and oleuropein) formulation (20 μM hydroxytyrosol, 80 μM oleuropein, 2 mM N-acetylcysteine, 50 μM L-proline, 2 mM glycine and 100 μM taurine) for 24 hours before wounding.
Images were taken at intervals and the wound gap was quantified over time using IMAGE® analysis software. […] The distances measured are depicted in the Figures by the horizontal solid lines indicating the distance between the gaps of the wound. 100 measurements were taken per image and a mean gap distance was determined. As shown in FIGS. 7-8 the initial wound and 24 hour measurement are shown by the images, under both control (FIG. 7A) and high glucose (FIG. 8A). In addition the reduction in percentage of open wound is further shown graphically for the control (FIG. 7B) and high glucose (FIG. 8B) conditions. The time for 50% of the wound to heal was quantified as well as the percentage of improvement compared to untreated cells.

In the next data set the test system is HMEC-1 cells. Description: crystal violet cell viability assay. The settings on record: 24 hours; HT 0-200 μM, OL 0-800 μM, Formulation 1 0-4×. The class given is cell-based, human. The procedure:
A crystal violet cell viability assay was performed to determine the cytotoxic effects of OLIVAMINE® (compositions of hydroxytyrosol and oleuropein) composition on HMEC-1 cells. Briefly, cells were seeded on a 24-well plate and treated for 24 h dose-titration concentrations of HT (0-200 μM), OL (0-800 μM), OLIVAMINE® (compositions of hydroxytyrosol and oleuropein) composition (McCord formulation 1, dilution factor=4×, Table 8). Following treatment, cells were washed twice with 0.9% saline and fixed with […] of 4% neutral formalin for 15-30 min. Cells were then stained with […] of 0.01% (w/v) crystal violet for 30 min, washed with dH2O and left to dry under a fume hood overnight. Cells were then lysed with […] of lysis buffer for 15 min on a rotating platform and the absorbance of each well was measured at the 560 nm wavelength using a microplate spectrophotometer.
To determine whether olive phenols influence cell proliferation, a crystal violet cell viability analysis was conducted. The relative cell viability of HMEC-1 cells was investigated. Cells were incubated with varying concentrations of HT (0-200 μM), OL (0-800 μM) and Formulation 1 (Table 8, 0-4×) 24 hours.

The mark [3] stands for this setting: Table 9, single ingredients, Present Art and Present Art without one ingredient.

In the case of `NCC(=O)O` [Glycine], the “Time for 50% wound to heal” value in data set [1] (setting [3]) stood at 20.73 h.

As for `OCCc1ccc(O)c(O)c1` [Hydroxytyrosol], in the data set on proliferative cells, the “threshold concentration for inducing or maintaining quiescence” value is “about 10 μM”. Besides, the “Time for 50% wound to heal” value in data set [1] (Table 1) was 19.25 h; in data set [1] (setting [3]), 19.25 h; in data set [2] (High Glucose (30 mM, 72 hours)), 15.2 h; in data set [2] (no glucose pre-treatment), 19.7 h. The “less effective than the present art combination” value in data set [1] (hydroxytyrosol alone) is 30%. In addition, the “Healing Improvement (%)” value amounted to 30% in data set [2] (High Glucose) and 10% in data set [2] (no glucose pre-treatment). In the data set with HMEC-1 cells, the “effect on cell proliferation / viability” value is listed as “no significantly effects on cell proliferation”.

Consider `NCCS(=O)(=O)O` [L-Taurine], for which the “Time for 50% wound to heal” value in data set [1] (setting [3]) was 22.5 h.

`O=C(O)[C@@H]1CCCN1` [L-proline]: the “Time for 50% wound to heal” value in data set [1] (setting [3]) worked out at 23.24 h.

Take `CC(=O)N[C@@H](CS)C(=O)O` [N-acetylcysteine, N-acetyl-L-cysteine, reference compound]: the “Time for 50% wound to heal” value in data set [1] (Table 1) and in data set [1] (setting [3]) was 28.87 h each time. Moreover, in data set [1] (compared to untreated or to single ingredients, absence and presence of glucose), the “effect on time and extent of wound healing (in words)” value is listed as “increased the time to 50% healing compared to untreated”.

As to `C/C=C1/[C@H](O[C@@H]2O[C@H](CO)[C@@H](O)[C@H](O)[C@H]2O)OC=C(C(=O)OC)[C@H]1CC(=O)OCCc1ccc(O)c(O)c1` [Oleuropein], the “Time for 50% wound to heal” value in data set [1] (Table 1) and in data set [1] (setting [3]) was 25.62 h throughout. The “effect on cell proliferation / viability” value in the data set with HMEC-1 cells was “no significantly effects on cell proliferation”.
